Columns and labels:
[1] = test system: HSV-1; experiment: Anti-HSV-1 replication assay in Vero cells, titer by plaque assay; format: cell-based, herpes simplex virus 1; settings: for Anti-HSV-1 Log10 suppression 5 μM / Anti-HSV-1 Log10 suppression 50 μM: moi 0.1, 24 h, relative to DMSO; for Anti-HSV-1 Log10 suppression 5 μM (screening symbol) / Anti-HSV-1 Log10 suppression 50 μM (screening symbol): visual inspection
Method: (§1) Anti-HSV-1 and -HSV-2 Replication Assay. Compounds to be screened were diluted in PBS supplemented to contain 2% newborn calf serum and 1% glutamine, and added in 100 μL, volume to confluent cell monolayers in 24-well cluster plates. Immediately thereafter HSV-1 and HSV-2, diluted in the supplemented PBS medium, were added to the wells in 50 μl volume such that the final concentration of compound was 50 μM and 5 μM and the multiplicity of infection was 0.1. The plates were incubated at 37° C. for 1 hour and then virus-containing inoculum was removed and the wells were washed once in PBS. Compounds, diluted to 50 μM and 5 μM in DMEM supplemented to contain 2% newborn calf serum and 1% each penicillin/streptomycin, were added at 0.5 mL/well. Plates were incubated at 37° C. an additional 23 hr, and then the plates were visually inspected through a phase contrast microscope for cytopathic effect, and for toxic effect. […] The entire contents of each well were collected by scraping. Samples were frozen at −80° C., and then subsequently thawed, sonicated, and infectious virus titer was determined by standard plaque assay on Vero cell monolayers. Because the compounds were dissolved at 10 mM in 100% DMSO, equivalent dilutions of DMSO were added to additional wells as a control for effects of the diluent. Each experiment was repeated once. EC50 values were determined as above except that serial dilutions of the compound to be tested were prepared starting at 50 μM. The inhibitory values were calculated by non-linear curve-fitting in GraphPad Prism.
(§2) Monolayers were microscopically inspected 24 hours post-infection and wells in which more cells were visually healthier than the DMSO-treated controls were collected. Viral titers in the culture lysates were then determined by standard plaque assay on Vero cells. Inhibition of viral replication was categorized as <1 log10 relative to the DMSO-treated control, 1 to 3 log10 suppression, or ≥3 log10 suppression. […] Additionally, four polyoxygenated heterocycle compounds were tested (#128, 138, 139, 140).

[2] = biological target: T1, human RNaseH1 (Homo sapiens, UniProt O60930); experiment: Biochemical inhibition of human RNaseH1 (oligonucleotide-directed RNA cleavage assay); settings: compounds at 60, 20 or 10 μM
T1 construct: hexahistidine; made in house; host or cells: E. coli
T1 sequence (O60930 1-286): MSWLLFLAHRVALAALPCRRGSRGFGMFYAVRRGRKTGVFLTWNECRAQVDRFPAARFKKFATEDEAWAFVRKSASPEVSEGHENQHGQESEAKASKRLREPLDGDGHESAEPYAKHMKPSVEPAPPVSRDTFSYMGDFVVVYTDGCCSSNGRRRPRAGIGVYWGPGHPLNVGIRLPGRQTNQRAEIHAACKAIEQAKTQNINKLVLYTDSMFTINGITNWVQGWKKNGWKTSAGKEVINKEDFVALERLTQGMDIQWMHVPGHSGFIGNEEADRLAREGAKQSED
Method: (§3) Biochemical inhibition of HBV RNaseH and human RNaseH1 activity. […] RNaseH activity was measured using an oligonucleotide-directed RNA cleavage assay in which a DNA oligonucleotide is annealed to an internally ^32P-labeled RNA, the RNA:DNA heteroduplex is incubated with the enzyme to permit cleavage, and then the RNA cleavage products are resolved by electrophoresis and detected by autoradiography. The compounds were included in the reaction mixes at 60, 20, or 10 μM and the amount of the RNA cleavage products in the compound-containing reactions was compared to reactions in which an equivalent concentration of DMSO was added as a vehicle control. The data were quantified using ImageJ.

[3] = test system: HSV-2; experiment: Anti-HSV-2 replication assay in Vero cells, titer by plaque assay; format: cell-based, herpes simplex virus 2; settings: for Anti-HSV-2 Log10 suppression 5 μM / Anti-HSV-2 Log10 suppression 50 μM: moi 0.1, 24 h, relative to DMSO; for Anti-HSV-2 Log10 suppression 5 μM (screening symbol) / Anti-HSV-2 Log10 suppression 50 μM (screening symbol): visual inspection
Method: as §1, §2

[4] = biological target: T2, HBV RNaseH (Hepatitis B virus genotype A2 subtype adw2, UniProt P03159); experiment: Biochemical inhibition of HBV RNaseH (oligonucleotide-directed RNA cleavage assay); settings: compounds at 60, 20 or 10 μM
T2 construct: One of the inventors recently produced active recombinant HBV RNase H; hexahistidine; made in house; host or cells: E. coli
T2 sequence (P03159 693-845): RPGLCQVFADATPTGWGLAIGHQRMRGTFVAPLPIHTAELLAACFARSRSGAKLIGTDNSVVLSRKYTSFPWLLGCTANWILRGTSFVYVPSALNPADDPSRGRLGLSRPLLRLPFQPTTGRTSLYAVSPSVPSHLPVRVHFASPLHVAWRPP
Method: as §3

[5] = test system: HSV-1; experiment: HSV-1 replication inhibition in primary human foreskin fibroblasts; format: cell-based, herpes simplex virus 1; settings: HFF cells, relative to DMSO-treated control
Method: as §1
(§4) Inhibition of viral replication was next assessed in human foreskin fibroblasts (HFF) to determine whether NTS inhibitors could block HSV-1 and HSV-2 replication in a physiologically relevant, primary human cell type. […] Viral yields 24 hours post-infection were measured by plaque assay.

[6] = test system: HSV-2; experiment: HSV-2 replication inhibition in primary human foreskin fibroblasts; format: cell-based, herpes simplex virus 2; settings: HFF cells, relative to DMSO-treated control
Method: as §1, §4

[7] = test system: primary human foreskin fibroblasts; experiment: MTT toxicity assay in human foreskin fibroblasts; settings: read-out: Toxicity, CC50 by MTT assay; HFF cells, 24 h
Method: Toxicity Assays. Qualitative assessments of cytotoxicity were done visually by inspecting the cells in the primary screening assays. For the quantitative assays, cells were plated in 96-well plates at 1.0×10^4 per well. The next day the compounds were added at 0.78 to 100 μM in a final concentration of 1% (v/v) DMSO, and the cells were incubated for 24 hours under conditions identical to those employed for the viral replication inhibition assays. Mitochondrial toxicity was measured by incubating the cells with 0.25 mg/mL thiazolyl blue tetrazolium bromide (MTT, SigmaAldrich Chemical Co.), the cultures were incubated for 60 min, metabolites were solubilized in acidic isopropanol, and absorbance was read at 570 nm. Cellular lysis was measured by detecting release of intracellular proteases with the CytoTox-Glo assay (Promega) according to the manufacturer's instructions. Percent viability was determined for each compound concentration from the maximal absorbance or luminosity data, and then CC50 values were calculated by non-linear curve fitting using GraphPad Prism.
as §4

| SMILES | Anti-HSV-1 Log10 suppression 5 μM [1] [log10] | Anti-HSV-1 Log10 suppression 50 μM [1] [log10] | Anti-Human RNaseH1 [2] | Anti-HSV-2 Log10 suppression 5 μM [3] [log10] | Anti-HSV-2 Log10 suppression 50 μM [3] [log10] | Anti-HBV RNaseH [4] | Anti-HSV-1 Log10 suppression 5 μM (screening symbol) [1] | Anti-HSV-1 Log10 suppression 50 μM (screening symbol) [1] | Anti-HSV-2 Log10 suppression 5 μM (screening symbol) [3] | Anti-HSV-2 Log10 suppression 50 μM (screening symbol) [3] | Replication inhibition HSV-1 5 μM ([5]; 5 μM) [log10] | Replication inhibition HSV-1 50 μM ([5]; 50 μM) [log10] | Inhibition of HSV-1 replication (in words) ([1]; primary screening) | Replication inhibition HSV-2 5 μM ([6]; 5 μM) [log10] | Replication inhibition HSV-2 50 μM ([6]; 50 μM) [log10] | CC50 [7] [µM] | Inhibition of HSV-2 replication (in words) ([3]; primary screening) |
| --- | --- | --- | --- | --- | --- | --- | --- | --- | --- | --- | --- | --- | --- | --- | --- | --- | --- |
| O=c1c(O)c(-c2ccc(O)c(O)c2)oc2cc(O)c(O)c(O)c12 [Compound 7] | 0.44 | 0.48 | +++ (inhibition at 10 μM) | 0.03 | 1.26 | − (no inhibition at 60 μM) |  |  |  |  |  |  |  |  |  |  |  |
| Cc1c2cc(O)c(=O)cc-2oc2cc(O)c(O)cc12 [Compound 8] | −0.18 | 0.86 | +++ (inhibition at 10 μM) | 0.18 | 2.49 | ++ (inhibition at 20 μM) |  |  |  |  |  |  |  |  |  |  |  |
| O=c1c(O)c(-c2cc(O)c(O)c(O)c2)oc2cc(O)cc(O)c12 [Compound 9] | 0.30 | 0.38 | ++ (inhibition at 20 μM) | −0.04 | 0.67 | ++ (inhibition at 20 μM) |  |  |  |  |  |  |  |  |  |  |  |
| Cc1nnc(C(=O)NC(C)(C)c2nc(C(=O)NCc3ccc(F)cc3)c(O)c(=O)n2C)o1 [Compound 11, Raltegravir, reference compound] | 0.2 | 0.37 | − (no inhibition at 60 μM) | 0.25 | 0.35 | − (no inhibition at 60 μM) |  |  |  |  |  |  |  |  |  |  |  |
| Cc1cc(=O)oc2cc(O)c(O)cc12 [Compound 34] | 0.08 | 2.64 | − (no inhibition at 60 μM) | −0.07 | 3.29 | ++ (inhibition at 20 μM) |  |  |  |  |  |  |  |  |  |  |  |
| CN(C)c1ccc(-c2c3cc(O)c(=O)cc-3oc3cc(O)c(O)cc23)cc1 [Compound 35] |  |  | +++ (inhibition at 10 μM) |  |  | +++ (inhibition at 10 μM) | − | − | − | − |  |  |  |  |  |  |  |
| O=c1cc2oc3cc(O)c(O)cc3c(-c3ccccn3)c-2cc1O [Compound 39] | 0.19 | 0.22 | +++ (inhibition at 10 μM) | 0.12 | 0.17 | +++ (inhibition at 10 μM) |  |  |  |  |  |  |  |  |  |  |  |
| CCOC(=O)c1cc2ccccc2n(O)c1=O [Compound 42] |  |  | + (inhibition at 60 μM) |  |  | − (no inhibition at 60 μM) | − | − | − | − |  |  |  |  |  |  |  |
| O=c1ccc2ccccc2n1O [Compound 43] | 0.31 | 1.31 | − (no inhibition at 60 μM) | 0.31 | 1.13 | − (no inhibition at 60 μM) |  |  |  |  |  |  |  |  |  |  |  |
| Cc1cc(C)n(O)c(=O)c1C#N [Compound 44] |  |  | − (no inhibition at 60 μM) |  |  | − (no inhibition at 60 μM) | − | − | − | − |  |  |  |  |  |  |  |
| O=C1c2cccc3cccc(c23)C(=O)N1O [Compound 45] |  |  | − (no inhibition at 60 μM) |  |  | − (no inhibition at 60 μM) | − | − | − | − |  |  |  |  |  |  |  |
| CC(C)c1cccc(O)c(=O)c1 [Compound 47, Beta-thujaplicin] | 0.31 | 1.86 | − (no inhibition at 60 μM) | 0.22 | 1.38 | − (no inhibition at 60 μM) |  |  |  |  | 0.02 | 5.06 | negligible inhibitors | 0.08 | 5.16 | > 100 | negligible inhibitors |
